Reference: ChEMBL document CHEMBL1201862, “PubChem BioAssay data set” (2004)
Calls of active or inactive are those of the source.

What was measured:
[1] = target: Aryl hydrocarbon receptor (Homo sapiens, UniProt P35869); experiment: Luminescence-based cell-based high throughput dose response assay for activators of the Aryl Hydrocarbon Receptor (AHR). [Related pubchem assays: 2796 (Primary screen (AHR activators in singlicate)), 2845 (Confirmation screen (AHR activators in triplicate)), 434939 (Counterscreen (PXR activators in triplicate)), 2804 (Summary (AHR activators))]; assay type: ADME
Aryl hydrocarbon receptor, sequence (P35869 whole entry): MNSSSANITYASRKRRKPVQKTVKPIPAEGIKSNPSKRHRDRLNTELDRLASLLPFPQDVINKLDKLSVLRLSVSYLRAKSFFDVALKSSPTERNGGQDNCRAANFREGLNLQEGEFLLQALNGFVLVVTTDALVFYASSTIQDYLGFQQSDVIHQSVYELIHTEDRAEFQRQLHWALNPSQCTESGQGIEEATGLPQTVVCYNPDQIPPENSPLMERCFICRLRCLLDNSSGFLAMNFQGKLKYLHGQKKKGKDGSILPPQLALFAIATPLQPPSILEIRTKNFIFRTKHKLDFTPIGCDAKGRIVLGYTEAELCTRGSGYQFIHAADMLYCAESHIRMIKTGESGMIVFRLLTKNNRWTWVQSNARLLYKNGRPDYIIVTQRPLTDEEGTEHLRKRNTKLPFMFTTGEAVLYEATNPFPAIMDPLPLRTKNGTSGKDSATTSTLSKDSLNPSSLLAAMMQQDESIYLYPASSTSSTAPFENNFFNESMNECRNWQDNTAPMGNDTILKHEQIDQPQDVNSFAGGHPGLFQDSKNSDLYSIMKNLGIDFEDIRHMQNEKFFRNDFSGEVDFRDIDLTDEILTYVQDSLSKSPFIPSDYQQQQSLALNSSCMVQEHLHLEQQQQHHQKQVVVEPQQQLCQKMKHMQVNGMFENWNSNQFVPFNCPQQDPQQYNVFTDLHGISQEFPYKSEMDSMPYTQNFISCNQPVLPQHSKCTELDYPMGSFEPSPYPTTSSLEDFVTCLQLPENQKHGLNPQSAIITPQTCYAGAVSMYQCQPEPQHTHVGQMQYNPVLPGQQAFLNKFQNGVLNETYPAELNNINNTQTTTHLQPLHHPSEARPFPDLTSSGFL

[2] = target: DNA repair and recombination protein RAD54-like (Homo sapiens, UniProt Q92698); experiment: inhibitors of human RAD54 branch migration, confirmation, biochemical, fluorescence, cherry-picked samples, dose series (AID 651657); assay type: functional
DNA repair and recombination protein RAD54-like, sequence (Q92698 whole entry): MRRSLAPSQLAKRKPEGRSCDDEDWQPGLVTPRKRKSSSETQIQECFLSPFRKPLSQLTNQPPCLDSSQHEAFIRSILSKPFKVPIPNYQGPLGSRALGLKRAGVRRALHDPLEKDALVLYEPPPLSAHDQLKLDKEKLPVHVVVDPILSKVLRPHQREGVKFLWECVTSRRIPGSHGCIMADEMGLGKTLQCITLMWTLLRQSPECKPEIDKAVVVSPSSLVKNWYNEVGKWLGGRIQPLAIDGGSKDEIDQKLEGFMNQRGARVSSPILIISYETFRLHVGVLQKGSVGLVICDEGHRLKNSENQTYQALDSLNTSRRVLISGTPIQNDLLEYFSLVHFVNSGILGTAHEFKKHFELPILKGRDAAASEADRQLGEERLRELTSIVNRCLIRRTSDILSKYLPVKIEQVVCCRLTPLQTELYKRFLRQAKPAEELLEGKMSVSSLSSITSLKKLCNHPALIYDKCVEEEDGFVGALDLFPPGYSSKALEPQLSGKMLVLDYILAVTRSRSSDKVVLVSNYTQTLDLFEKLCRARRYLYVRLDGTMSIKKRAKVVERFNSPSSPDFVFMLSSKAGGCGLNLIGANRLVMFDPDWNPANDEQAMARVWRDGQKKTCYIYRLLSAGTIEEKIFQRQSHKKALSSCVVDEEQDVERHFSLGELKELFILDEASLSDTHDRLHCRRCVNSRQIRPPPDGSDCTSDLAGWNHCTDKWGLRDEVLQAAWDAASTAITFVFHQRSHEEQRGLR

[3] = cytotoxicity toward DRD oncogenic fibroblasts, dose response, cell-based, non-viral oncogenic, luminescence (AID 1934); assay type: functional; conditions: Homo sapiens
[4] = Counterscreen for activators of the function of SWI/SNF related, matrix associated, actin dependent regulator of chromatin, subfamily a, member 2 (SMARCA2, BRM): Luminescence-based cell-based high throughput dose response assay to identify non-selective compounds using the VP16 reporter assay.; assay type: functional
[5] = system: BJ; experiment: cytotoxicity toward BJ-TERT-LT-ST fibroblasts, dose response, cell-based, RAS-independent, luminescence (AID 1935); assay type: functional; conditions: Homo sapiens;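 also: BJ fibroblasts immortalized with TERT plus LT and ST oncogenes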
[6] = cells; assay type: functional, cell-based
[7] = system: BJ; experiment: cytotoxicity toward BJ-TERT fibroblasts, dose response, cell-based, RAS-independent, luminescence (AID 1933); assay type: functional; conditions: Homo sapiens
[8] = cells; assay type: functional, cell-based; remark: listed apart in the source
[9] = system: INS1; experiment: beta cell apoptosis inhibitors, cytokine rescue, dose response, luminescence, retest (AID 449756); assay type: functional, cell-based; conditions: Rattus norvegicus;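 also: cell death triggered by IL-1 beta plus TNF-alpha plus IFN-gamma mixture; protective hits raise ATP signal compared with cytokine alone wells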
[10] = target: SWI/SNF-related matrix-associated actin-dependent regulator of chromatin subfamily A member 2 (Homo sapiens, UniProt P51531); experiment: Luminescence-based cell-based high throughput dose response assay to identify activators of the function of SWI/SNF related, matrix associated, actin dependent regulator of chromatin, subfamily a, member 2 (SMARCA2, BRM).; assay type: functional
SWI/SNF-related matrix-associated actin-dependent regulator of chromatin subfamily A member 2, sequence (P51531 whole entry): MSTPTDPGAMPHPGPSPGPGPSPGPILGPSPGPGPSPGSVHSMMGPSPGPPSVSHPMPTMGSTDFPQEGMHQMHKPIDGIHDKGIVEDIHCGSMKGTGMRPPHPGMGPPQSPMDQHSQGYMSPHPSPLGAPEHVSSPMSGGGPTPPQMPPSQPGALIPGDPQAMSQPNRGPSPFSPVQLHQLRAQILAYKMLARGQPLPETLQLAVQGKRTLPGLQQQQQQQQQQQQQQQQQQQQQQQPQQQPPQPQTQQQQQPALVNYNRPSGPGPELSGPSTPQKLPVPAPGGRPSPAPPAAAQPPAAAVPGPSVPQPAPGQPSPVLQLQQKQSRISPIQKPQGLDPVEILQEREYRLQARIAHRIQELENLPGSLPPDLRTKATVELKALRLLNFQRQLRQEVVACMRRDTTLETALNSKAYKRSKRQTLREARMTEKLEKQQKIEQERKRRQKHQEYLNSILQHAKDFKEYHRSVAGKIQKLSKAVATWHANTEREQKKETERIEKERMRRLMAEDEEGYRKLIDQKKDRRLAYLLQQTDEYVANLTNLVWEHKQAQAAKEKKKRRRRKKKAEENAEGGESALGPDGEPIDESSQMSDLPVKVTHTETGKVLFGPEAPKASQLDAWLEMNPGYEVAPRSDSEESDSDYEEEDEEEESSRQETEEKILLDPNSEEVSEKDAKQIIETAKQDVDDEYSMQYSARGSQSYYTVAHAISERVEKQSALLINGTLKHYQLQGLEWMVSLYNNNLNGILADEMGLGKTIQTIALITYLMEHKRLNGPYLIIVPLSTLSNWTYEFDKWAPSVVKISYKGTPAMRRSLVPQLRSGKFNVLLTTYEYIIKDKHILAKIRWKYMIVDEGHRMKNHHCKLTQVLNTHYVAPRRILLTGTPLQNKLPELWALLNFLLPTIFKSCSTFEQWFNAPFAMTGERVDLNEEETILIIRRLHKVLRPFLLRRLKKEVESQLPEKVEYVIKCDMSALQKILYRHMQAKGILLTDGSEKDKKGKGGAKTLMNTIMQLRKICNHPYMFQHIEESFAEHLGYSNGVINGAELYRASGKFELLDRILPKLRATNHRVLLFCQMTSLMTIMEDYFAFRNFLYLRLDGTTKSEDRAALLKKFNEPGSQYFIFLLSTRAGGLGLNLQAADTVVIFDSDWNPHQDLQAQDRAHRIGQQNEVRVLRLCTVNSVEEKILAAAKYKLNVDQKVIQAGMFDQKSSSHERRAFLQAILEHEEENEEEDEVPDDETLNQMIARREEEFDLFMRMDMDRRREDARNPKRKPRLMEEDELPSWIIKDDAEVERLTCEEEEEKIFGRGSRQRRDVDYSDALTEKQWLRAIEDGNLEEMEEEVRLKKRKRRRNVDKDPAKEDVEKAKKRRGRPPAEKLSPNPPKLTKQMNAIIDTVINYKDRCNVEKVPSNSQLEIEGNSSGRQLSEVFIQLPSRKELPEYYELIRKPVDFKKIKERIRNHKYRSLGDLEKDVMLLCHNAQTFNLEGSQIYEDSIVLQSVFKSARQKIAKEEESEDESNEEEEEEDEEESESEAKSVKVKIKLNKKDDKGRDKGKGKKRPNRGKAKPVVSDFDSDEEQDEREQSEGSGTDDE

[11] = system: BJ; experiment: cells; assay type: functional, cell-based; conditions: Homo sapiens
[12] = target: Tyrosine-protein phosphatase non-receptor type 5 (Homo sapiens, UniProt P54829); experiment: STEP phosphatase inhibitors, confirmation, biochemical, fluorescence intensity, uHTS hits (AID 602372); assay type: functional; conditions: read-out: IC50_Mean
Tyrosine-protein phosphatase non-receptor type 5, sequence (P54829 whole entry): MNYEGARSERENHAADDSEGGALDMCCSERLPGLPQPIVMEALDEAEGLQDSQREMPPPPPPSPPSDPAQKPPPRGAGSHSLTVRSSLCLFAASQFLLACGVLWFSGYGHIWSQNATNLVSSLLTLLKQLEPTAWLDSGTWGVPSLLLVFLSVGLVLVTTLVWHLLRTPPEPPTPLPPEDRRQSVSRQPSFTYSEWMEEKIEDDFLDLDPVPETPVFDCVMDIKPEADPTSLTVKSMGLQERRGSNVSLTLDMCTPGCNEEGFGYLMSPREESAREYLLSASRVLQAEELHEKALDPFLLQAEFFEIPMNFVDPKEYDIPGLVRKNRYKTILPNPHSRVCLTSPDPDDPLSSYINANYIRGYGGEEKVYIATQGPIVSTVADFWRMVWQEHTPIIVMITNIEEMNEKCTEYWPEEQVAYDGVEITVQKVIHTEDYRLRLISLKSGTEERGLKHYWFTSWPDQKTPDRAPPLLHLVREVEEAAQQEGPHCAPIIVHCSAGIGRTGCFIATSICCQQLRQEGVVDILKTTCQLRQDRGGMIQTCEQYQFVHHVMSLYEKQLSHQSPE

[13] = target: Dual specificity protein phosphatase 3 (Homo sapiens, UniProt P51452); experiment: VHR phosphatase inhibition, dose response, selectivity assay for STEP inhibitor project, biochemical (AID 602374); assay type: functional; conditions: read-out: IC50_Mean
Dual specificity protein phosphatase 3, sequence (P51452 whole entry): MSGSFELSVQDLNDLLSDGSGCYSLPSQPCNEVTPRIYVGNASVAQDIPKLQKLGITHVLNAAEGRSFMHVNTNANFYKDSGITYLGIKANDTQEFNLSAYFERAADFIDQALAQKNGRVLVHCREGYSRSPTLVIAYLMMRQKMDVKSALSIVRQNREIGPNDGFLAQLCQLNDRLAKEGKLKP

[14] = target: Tyrosine-protein phosphatase non-receptor type 11 (Homo sapiens, UniProt Q06124); experiment: SHP2 phosphatase inhibition, dose response, selectivity assay for STEP inhibitor project, biochemical (AID 602367); assay type: functional; conditions: read-out: IC50_Mean
Tyrosine-protein phosphatase non-receptor type 11, sequence (Q06124 whole entry): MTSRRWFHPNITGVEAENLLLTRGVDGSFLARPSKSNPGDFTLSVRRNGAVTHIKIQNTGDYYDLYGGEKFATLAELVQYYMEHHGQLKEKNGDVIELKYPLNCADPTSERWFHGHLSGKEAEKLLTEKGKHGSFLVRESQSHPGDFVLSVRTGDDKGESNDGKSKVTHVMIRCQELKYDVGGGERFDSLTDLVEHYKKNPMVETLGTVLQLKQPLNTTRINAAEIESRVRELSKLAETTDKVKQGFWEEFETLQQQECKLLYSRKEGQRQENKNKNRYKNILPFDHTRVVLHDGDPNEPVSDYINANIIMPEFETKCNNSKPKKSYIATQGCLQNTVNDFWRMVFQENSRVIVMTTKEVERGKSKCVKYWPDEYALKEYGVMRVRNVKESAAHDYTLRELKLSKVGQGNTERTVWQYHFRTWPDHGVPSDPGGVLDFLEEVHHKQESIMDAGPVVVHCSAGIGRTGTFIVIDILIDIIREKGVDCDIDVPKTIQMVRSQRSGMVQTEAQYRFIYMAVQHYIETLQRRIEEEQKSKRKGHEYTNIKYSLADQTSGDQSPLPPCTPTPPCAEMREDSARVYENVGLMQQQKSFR

[15] = Luminescence Cell-Based Dose Response HTS to Identify Inhibitors of 5'UTR Stem-Loop Driven Prion Protein mRNA Translation in H4 Neuroglioblastoma Cells. [Related pubchem assays: 1827 (Project Summary), 1813 (Primary HTS)]; assay type: functional
[16] = inhibitors of SNCA 5'UTR-driven reporter translation, confirmation, H4 neuroglioma cells, luminescence (AID 1988); assay type: functional, cell-based
[17] = inhibitors of firefly luciferase expression or activity, dose response, H4 neuroglioma cells, luminescence (AID 1990); assay type: functional, cell-based
[18] = target: Mitochondrial peptide methionine sulfoxide reductase (Bos taurus, UniProt P54149); experiment: Absorbance-based biochemical high throughput dose response assay for activators of Methionine sulfoxide reductase A (MsrA).; assay type: functional
Mitochondrial peptide methionine sulfoxide reductase, sequence (P54149 whole entry): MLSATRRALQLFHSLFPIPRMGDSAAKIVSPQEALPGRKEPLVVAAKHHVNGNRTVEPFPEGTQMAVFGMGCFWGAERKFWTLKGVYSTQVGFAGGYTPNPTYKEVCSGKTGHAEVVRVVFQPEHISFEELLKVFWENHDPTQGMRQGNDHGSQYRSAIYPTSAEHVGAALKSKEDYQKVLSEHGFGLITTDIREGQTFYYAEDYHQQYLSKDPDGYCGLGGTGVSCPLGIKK

[19] = target: T1, Replicative DNA helicase DnaB (Mycobacterium tuberculosis, UniProt P9WMR3); experiment: DnaB intein splicing inhibitors, dose response, biochemical, cell-free fluorescence (AID 449749); assay type: functional
T1 sequence (P9WMR3 whole entry): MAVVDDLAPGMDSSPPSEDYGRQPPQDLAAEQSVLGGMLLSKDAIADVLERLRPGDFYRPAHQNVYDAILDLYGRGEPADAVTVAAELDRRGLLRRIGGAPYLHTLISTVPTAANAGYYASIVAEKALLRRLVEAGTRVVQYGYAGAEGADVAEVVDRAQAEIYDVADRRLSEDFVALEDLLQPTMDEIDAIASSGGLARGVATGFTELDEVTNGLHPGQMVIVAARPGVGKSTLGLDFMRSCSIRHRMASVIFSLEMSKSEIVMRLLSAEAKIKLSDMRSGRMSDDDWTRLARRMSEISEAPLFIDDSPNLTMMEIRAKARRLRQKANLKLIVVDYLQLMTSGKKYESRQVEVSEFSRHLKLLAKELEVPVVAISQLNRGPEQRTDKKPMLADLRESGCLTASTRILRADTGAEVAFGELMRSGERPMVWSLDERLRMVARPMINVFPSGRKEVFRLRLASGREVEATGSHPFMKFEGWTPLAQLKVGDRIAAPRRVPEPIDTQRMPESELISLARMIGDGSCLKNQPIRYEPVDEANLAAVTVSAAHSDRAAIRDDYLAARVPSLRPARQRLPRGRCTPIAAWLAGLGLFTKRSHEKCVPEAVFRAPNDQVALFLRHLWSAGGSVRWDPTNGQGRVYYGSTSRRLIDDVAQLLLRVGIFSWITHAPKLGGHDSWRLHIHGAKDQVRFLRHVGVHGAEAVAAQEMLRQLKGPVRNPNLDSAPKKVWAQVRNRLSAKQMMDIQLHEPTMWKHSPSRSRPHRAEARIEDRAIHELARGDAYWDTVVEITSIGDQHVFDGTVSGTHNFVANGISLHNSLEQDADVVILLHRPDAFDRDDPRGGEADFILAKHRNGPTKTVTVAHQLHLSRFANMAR

[20] = target: T2, Histone-lysine N-methyltransferase NSD2 (Homo sapiens, UniProt O96028); assay type: biochemical
T2 sequence (O96028 whole entry): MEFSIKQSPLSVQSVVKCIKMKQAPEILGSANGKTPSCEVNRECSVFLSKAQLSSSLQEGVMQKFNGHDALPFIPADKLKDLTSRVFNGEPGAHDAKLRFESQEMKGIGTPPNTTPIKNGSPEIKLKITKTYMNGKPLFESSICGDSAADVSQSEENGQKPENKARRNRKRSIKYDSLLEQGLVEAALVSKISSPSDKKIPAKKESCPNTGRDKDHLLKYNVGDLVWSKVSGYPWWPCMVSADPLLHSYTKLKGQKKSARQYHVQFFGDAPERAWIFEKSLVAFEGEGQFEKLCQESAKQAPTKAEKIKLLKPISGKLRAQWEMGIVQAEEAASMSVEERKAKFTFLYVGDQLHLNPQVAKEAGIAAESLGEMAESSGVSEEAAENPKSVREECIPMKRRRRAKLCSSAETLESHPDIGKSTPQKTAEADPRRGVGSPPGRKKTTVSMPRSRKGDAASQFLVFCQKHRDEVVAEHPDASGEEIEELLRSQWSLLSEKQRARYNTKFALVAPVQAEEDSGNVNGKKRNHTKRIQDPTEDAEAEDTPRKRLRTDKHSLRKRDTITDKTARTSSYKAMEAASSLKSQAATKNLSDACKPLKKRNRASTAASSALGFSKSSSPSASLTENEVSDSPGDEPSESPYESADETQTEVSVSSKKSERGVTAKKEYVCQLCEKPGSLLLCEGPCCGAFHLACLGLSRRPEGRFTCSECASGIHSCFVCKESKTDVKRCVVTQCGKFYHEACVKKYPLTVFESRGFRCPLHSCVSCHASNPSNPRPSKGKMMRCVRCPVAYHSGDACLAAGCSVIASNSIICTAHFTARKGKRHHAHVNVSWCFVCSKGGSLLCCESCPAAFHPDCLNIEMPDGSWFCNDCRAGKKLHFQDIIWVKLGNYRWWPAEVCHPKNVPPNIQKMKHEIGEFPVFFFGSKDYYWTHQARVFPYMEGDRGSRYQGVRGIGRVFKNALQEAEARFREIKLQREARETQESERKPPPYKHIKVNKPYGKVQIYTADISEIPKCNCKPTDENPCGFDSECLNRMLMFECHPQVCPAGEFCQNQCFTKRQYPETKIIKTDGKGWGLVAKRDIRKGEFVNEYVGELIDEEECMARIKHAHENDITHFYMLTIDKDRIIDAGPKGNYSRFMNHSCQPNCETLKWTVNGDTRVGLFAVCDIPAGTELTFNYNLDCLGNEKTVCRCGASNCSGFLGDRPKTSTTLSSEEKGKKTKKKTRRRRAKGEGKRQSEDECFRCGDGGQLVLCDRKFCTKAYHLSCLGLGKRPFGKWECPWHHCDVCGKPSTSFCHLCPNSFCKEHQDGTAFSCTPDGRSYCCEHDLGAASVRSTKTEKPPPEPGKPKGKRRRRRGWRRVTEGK

[21] = target: T3, Protein RecA (Mycobacterium tuberculosis, UniProt P9WHJ3); experiment: Fluorescence Cell-Free Homogeneous Dose Retest to Identify Inhibitors of RecA-Intein Splicing Activity. [Related pubchem assays (depositor defined):AID2097, AID2223, AID489010, AID492950]; assay type: functional
T3 sequence (P9WHJ3 whole entry): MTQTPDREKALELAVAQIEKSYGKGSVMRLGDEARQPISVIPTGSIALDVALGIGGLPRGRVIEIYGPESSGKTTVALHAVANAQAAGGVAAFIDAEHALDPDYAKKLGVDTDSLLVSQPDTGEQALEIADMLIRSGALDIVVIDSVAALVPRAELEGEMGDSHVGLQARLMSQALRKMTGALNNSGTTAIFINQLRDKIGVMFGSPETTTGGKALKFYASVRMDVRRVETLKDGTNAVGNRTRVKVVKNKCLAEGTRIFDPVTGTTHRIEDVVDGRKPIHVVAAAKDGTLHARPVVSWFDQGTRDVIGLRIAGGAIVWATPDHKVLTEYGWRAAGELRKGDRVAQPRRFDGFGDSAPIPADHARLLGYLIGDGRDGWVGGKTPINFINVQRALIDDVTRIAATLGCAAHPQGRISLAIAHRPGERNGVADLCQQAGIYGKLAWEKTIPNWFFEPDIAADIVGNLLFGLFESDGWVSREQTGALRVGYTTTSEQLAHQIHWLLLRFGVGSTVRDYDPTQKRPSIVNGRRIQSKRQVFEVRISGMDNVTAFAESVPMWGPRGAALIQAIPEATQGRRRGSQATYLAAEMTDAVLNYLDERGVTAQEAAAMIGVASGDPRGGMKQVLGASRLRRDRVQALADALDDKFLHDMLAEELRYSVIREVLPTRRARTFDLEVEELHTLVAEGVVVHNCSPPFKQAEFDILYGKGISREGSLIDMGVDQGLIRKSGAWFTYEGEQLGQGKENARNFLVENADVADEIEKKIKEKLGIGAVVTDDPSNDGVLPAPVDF

**Q.** For Nc1cc2c3c(cccc3c1)C(=O)N(CCN1CCCC1)C2=O, which EC50 [1] is on record?
**A.** 0.286 µM (active)

**Q.** And the AC50 [2]?
**A.** 5.82 µM (active)

**Q.** And the EC50 [3]?
**A.** 19.5 µM (active)

**Q.** What about the EC50 [4] of the same molecule?
**A.** > 91.2 µM (inactive)

**Q.** And the EC50 [5]?
**A.** > 150 µM (inconclusive)

**Q.** What about the EC50 [6] of the same molecule?
**A.** > 350 µM (not active)

**Q.** And the EC50 [7]?
**A.** 13.2 µM (active)

**Q.** And the EC50 [8]?
**A.** > 350 µM (not active)

**Q.** What about the AC50 [9] of the same molecule?
**A.** 3.43 µM (active)

**Q.** What about the EC50 [10] of the same molecule?
**A.** > 10.1 µM (inactive)

**Q.** And the EC50 [11]?
**A.** 20.6 µM (active)

**Q.** Which results are given for Sc1nnc(-c2cccnc2)n1/N=C/c1ccc(Br)s1?
**A.** IC50 [12]: > 80 µM (inactive); IC50 [13]: 4.27 µM (active); IC50 [14]: 4.66 µM (active)

**Q.** What does the source list for NC1=C(Br)C(=O)c2ccccc2C1=O?
**A.** EC50 [15]: > 60 µM (not active); EC50 [16]: > 120 µM (not active); EC50 [17]: > 60 µM (not active); EC50 [18]: 61.9 µM (inactive); AC50 [19]: 2.95 µM (active); AC50 [9]: 6.52 µM (active); AC50 [20]: 10 µM (active); EC50 [21]: 2.99 µM (active)
